≈ marks a conversion by molar mass, not a printed value. Where two headings read alike, the source gives them in different places.
Assays:
[1] = In vivo pharmacokinetics test in mice (oral); set-up: species or system CD-1 mice; details: PO 10.0 mg/kg; for AUC0→t / Cmax / MRT / t1/2 / Tmax: plasma; for AUC0→t relative to AZD0914 / Cmax relative to AZD0914: multiple of the AZD0914 value
Procedure: Healthy female CD-1 mice were randomly divided into five groups and each group comprised three mice. The tested compound was administered orally.
0.030 mL of blood was taken from the orbit of each animal each time and anticoagulated with EDTAK2. The collection time was as follows. PO group: 15 m, 30 mi, 1 h, 2 h, 4 h, 6 h, 8 h, and 24 h after administration of the test compound. The collected blood samples were placed on ice and centrifuged within 30 minutes to separate the plasma (centrifugation conditions: 5000 rpm, 10 minutes, room temperature). The samples were stored at −80° C. before analysis.

[2] = test system: methicillin-resistant Staphylococcus aureus or MRSA; assay: In vitro antibacterial activity, MIC by micro broth dilution; assay type: cell-based; details: read-out: MIC MRSA
Excerpt: (§1) The following strains isolated in clinic were used in antibacterial activity screening in vitro: five strains of methicillin-resistant Staphylococcus aureus or MRSA, five strains of methicillin-sensitive Staphylococcus aureus or MSSA, five strains of methicillin-resistant Staphylococcus epidermidis or MRSE, five strains of methicillin-sensitive Staphylococcus epidermidis or MSSE, three strains of penicillin-resistant Streptococcus pneumoniae or PRSP, and three strains of Streptococcus pyogenes.
(§2) The above strains were clinically isolated pathogenic bacteria collected in Sichuan and Beijing in December 2015. They were identified by the collection unit via a VITEK-60 automatic microbiological identification instrument, and then re-identified by conventional methods in the laboratory. Before the experiment, each strain was purified by a single colony on an agar plate, and the cells freshly cultured at 37° C. overnight were appropriately diluted for the experiment. Quality control strain was Staphylococcus aureus ATCC25923 purchased from the Clinical Testing Center of the Ministry of Health of the People's Republic of China.
(§3) Medium: MH (Mueller-Hinton, hydrolyzed casein) broth (OXOID);
(§4) Culture condition: Incubate at 35-37° C. for 16-18 h.
(§5) The MIC value of each test sample for the tested strain was determined by micro broth dilution method recommended by Performance Standards for Antimicrobial Susceptibility Testing (Twenty-Third Informational Supplement; M02-A11, M07-A9 and M11-A8, 2013) of American Clinical and Laboratory Standards Institute (CLSI).
(§6) After diluting each test sample to different concentrations in MH broth, 100 μl of each sample solution at different concentrations was pipetted into a sterilized 96-well polystyrene plate. In the first to twelfth wells, the drug solution was added, and the final drug concentrations in each well were 64, 32, 16, 8, 4, 2, 1, 0.5, 0.25, 0.125, 0.06, and 0.03 mg/L. The well without drug and without bacteria was set as blank control well. The well with bacteria and without drug was set as a bacterial growth control well.
(§7) The test bacterial solution was adjusted with physiological saline to a bacterial suspension equivalent to 0.5 Maisson turbidity standard, and diluted 1:100 with MH broth. The drug solution was added so that the final concentration of the bacterial solution was about 10^4 CFU/ml; then 100 μl of bacterial solution was pipetted into the above wells (the total volume in each well was 200 μl). The plate was sealed and placed in a 35-37° C. incubator for 18-20 h, and then the results were determined. […] When Streptococcus pneumoniae was tested, sterile defibrillated sheep blood was added into the Colombian broth culture medium at a final concentration of 5% and cultivation was conducted in a 5% CO2 and 35-37° C. incubator for 18-20 hours.

[3] = test system: methicillin-resistant Staphylococcus epidermidis or MRSE; assay: as above; assay type: cell-based; details: read-out: MIC MRSE
Excerpt: as §1, §2, §3, §4, §5, §6, §7

Streptococcus pyogenes = assay: as above; assay type: cell-based; details: read-out: MIC Spy
Excerpt: as §1, §2, §3, §4, §5, §6, §7

[4] = test system: methicillin-sensitive Staphylococcus aureus or MSSA; assay: as above; assay type: cell-based; details: read-out: MIC MSSA
Excerpt: as §1, §2, §3, §4, §5, §6, §7

[5] = test system: penicillin-resistant Streptococcus pneumoniae or PRSP; assay: as above; assay type: cell-based; details: read-out: MIC PRSP
Excerpt: as §1, §2, §3, §4, §5, §6, §7

[6] = test system: methicillin-sensitive Staphylococcus epidermidis or MSSE; assay: as above; assay type: cell-based; details: read-out: MIC MSSE
Excerpt: as §1, §2, §3, §4, §5, §6, §7

[7] = test system: MRSA, MSSA, MRSE, MSSE, PRSP, and Spy; assay: In vitro antibacterial activity over the whole strain panel, compared with AZD0914; assay type: cell-based; details: against MRSA
Excerpt: as §1, §2, §5, §6, §7

[8] = female, CD-1, mouse, read-out: Tmax
[9] = 3 clinical strains, range over strains

Compound	AUC0→t [1] [ng·h/mL]	Cmax [1] [ng/mL]	MRT [1] [h]	t1/2 [1] [h]	Tmax [1, 8] [h]	MIC [2] [µg/mL]	MIC [3] [µg/mL]	MIC (Streptococcus pyogenes) [µg/mL]	MIC [4] [µg/mL]	MIC [5] [µg/mL]	MIC [6] [µg/mL]	AUC0→t relative to AZD0914 [1] [times)]	Cmax relative to AZD0914 [1] [times)]	Tmax [1] [h]	in vitro antibacterial activity relative to AZD0914 [7]	MIC (Streptococcus pyogenes; [9]) [µg/mL]	MIC [5, 9] [µg/mL]	MIC ([6]; 5 clinical strains, range over strains) [µg/mL]
C[C@@H]1CN2c3c(cc4c(N5C[C@@H](C)SC5=O)noc4c3F)CC3(C(=O)NC(=O)NC3=O)[C@H]2[C@H](C)O1 [Compound 3, (2R,4S,4aS)-11-fluoro-2,4-dimethyl-8-((R)-5-methyl-2-oxothiazolin-3-yl)-1,2,4,4a-tetrahydro-2′H,6H-spiro[isoxazole[4,5-g][1,4]oxazine[4,3-a]quinoline-5,5′-pyrimidine]-2′,4′,6′(1′H,3′H)-trione]	12034 ± 2835	2188 ± 223	4.85 ± 0.99	2.70 ± 0.143	0.583 ± 0.382	0.03 to 0.25 (≈ 0.0596 to 0.497 µM)	0.03 to 0.06 (≈ 0.0596 to 0.119 µM)	< 0.03	0.03 to 0.125 (≈ 0.0596 to 0.248 µM)	0.03 (≈ 0.0596 µM)	0.03 to 0.06 (≈ 0.0596 to 0.119 µM)							
C[C@@H]1CN2c3c(cc4c(N5C(=O)SC[C@H]5C)noc4c3F)CC3(C(=O)NC(=O)NC3=O)[C@H]2[C@H](C)O1 [Compound 4, (2R,4S,4aS)-11-fluoro-2,4-dimethyl-8-((R)-4-methyl-2-oxothiazolin-3-yl)-1,2,4,4a-tetrahydro-2′H,6H-spiro[isoxazole[4,5-g][1,4]oxazine[4,3-a]quinoline-5,5′-pyrimidine]-2′,4′,6′(1′H,3′H)-trione]						0.03 to 0.5 (≈ 0.0596 to 0.993 µM)	0.03 to 0.125 (≈ 0.0596 to 0.248 µM)	0.125 to 0.25 (≈ 0.248 to 0.497 µM)	0.25 to 0.5 (≈ 0.497 to 0.993 µM)	0.25 to 1 (≈ 0.497 to 1.99 µM)	0.03 to 0.125 (≈ 0.0596 to 0.248 µM)							
C[C@@H]1CN2c3c(cc4c(N5C(=O)SC[C@@H]5C)noc4c3F)CC3(C(=O)NC(=O)NC3=O)[C@H]2[C@H](C)O1 [Compound 5, (2R,4S,4aS)-11-fluoro-2,4-dimethyl-8-((S)-4-methyl-2-oxothiazolin-3-yl)-1,2,4,4a-tetrahydro-2′H,6H-spiro[isoxazole[4,5-g][1,4]oxazine[4,3-a]quinoline-5,5′-pyrimidine]-2′,4′,6′(1′H,3′H)-trione]						0.03 to 0.25 (≈ 0.0596 to 0.497 µM)	0.06 to 0.25 (≈ 0.119 to 0.497 µM)	0.125 to 0.25 (≈ 0.248 to 0.497 µM)	0.25 to 0.5 (≈ 0.497 to 0.993 µM)	0.125 to 1 (≈ 0.248 to 1.99 µM)	0.03 to 0.125 (≈ 0.0596 to 0.248 µM)							
C[C@@H]1CN2c3c(cc4c(N5C[C@H](CF)SC5=O)noc4c3F)CC3(C(=O)NC(=O)NC3=O)[C@H]2[C@H](C)O1 [Compound 6]						0.03 to 1 (≈ 0.0575 to 1.92 µM)	0.03 to 0.06 (≈ 0.0575 to 0.115 µM)	0.03 to 0.06 (≈ 0.0575 to 0.115 µM)	0.06 to 0.125 (≈ 0.115 to 0.24 µM)	0.06 to 0.25 (≈ 0.115 to 0.479 µM)	< 0.03							
COC[C@H]1CN(c2noc3c(F)c4c(cc23)CC2(C(=O)NC(=O)NC2=O)[C@H]2[C@H](C)O[C@H](C)CN42)C(=O)S1 [Compound 8, (2R,4S,4aS)-11-fluoro-8-((R)-5-(methoxymethyl)-2-oxothiazolin-3-yl)-2,4-dimethyl-1,2,4,4a-tetrahydro-2′H,6H-spiro[isoxazole[4,5-g][1,4]oxazine[4,3-a]quinoline-5,5′-pyrimidine]-2′,4′,6′(1′H,3′H)-trione]	8240 ± 940	2051 ± 88	3.72 ± 0.76	2.51 ± 0.08	0.583 ± 0.382	0.03 to 0.5 (≈ 0.0562 to 0.937 µM)	0.03 (≈ 0.0562 µM)	0.25 to 0.5 (≈ 0.469 to 0.937 µM)	0.03 to 0.25 (≈ 0.0562 to 0.469 µM)	0.03 to 0.5 (≈ 0.0562 to 0.937 µM)	0.03 to 0.125 (≈ 0.0562 to 0.234 µM)	~11	~11					
C[C@@H]1CN2c3c(cc4c(N5C[C@H](CN=[N+]=[N-])SC5=O)noc4c3F)CC3(C(=O)NC(=O)NC3=O)[C@H]2[C@H](C)O1 [Compound 10, (2R,4S,4aS)-8-((R)-5-(azidomethyl)-2-oxothiazol-3-yl)-11-fluoro-2,4-dimethyl-1,2,4,4a-tetrahydro-2′H,6H-spiro[isoxazole[4,5-g][1,4]oxazine[4,3-a]quinoline-5,5′-pyrimidine]-2′,4′,6′(1′H,3′H)-trione]						0.25 to 0.5 (≈ 0.459 to 0.918 µM)	0.03 to 0.125 (≈ 0.0551 to 0.23 µM)	0.125 to 1 (≈ 0.23 to 1.84 µM)	0.06 to 0.25 (≈ 0.11 to 0.459 µM)	0.125 (≈ 0.23 µM)	0.03 to 0.25 (≈ 0.0551 to 0.459 µM)							
CC[C@@H]1CN(c2noc3c(F)c4c(cc23)CC2(C(=O)NC(=O)NC2=O)[C@H]2[C@H](C)O[C@H](C)CN42)C(=O)S1 [Compound 16, (2R,4S,4aS)-8-((R)-5-ethyl-2-oxothiazol-3-yl)-11-fluoro-2,4-dimethyl-1,2,4,4a-tetrahydro-2′H,6H-spiro[isoxazole[4,5-g][1,4]oxazine[4,3-a]quinoline-5,5′-pyrimidine]-2′,4′,6′(1′H,3′H)-trione]	8057 ± 1469	2376 ± 411	3.45 ± 0.788	1.59 ± 0.495		0.03 to 0.06 (≈ 0.058 to 0.116 µM)	< 0.03	< 0.03	0.03 to 0.06 (≈ 0.058 to 0.116 µM)	0.03 to 0.06 (≈ 0.058 to 0.116 µM)	< 0.03	~11	~13	1.17 ± 0.764	about 8 times			
CC[C@H]1CN(c2noc3c(F)c4c(cc23)CC2(C(=O)NC(=O)NC2=O)[C@H]2[C@H](C)O[C@H](C)CN42)C(=O)S1 [Compound 19, (2R,4S,4aS)-8-((S)-5-ethyl-2-oxothiazol-3-yl)-11-fluoro-2,4-dimethyl-1,2,4,4a-tetrahydro-2′H,6H-spiro[isoxazole[4,5-g][1,4]oxazine[4,3-a]quinoline-5,5′-pyrimidine]-2′,4′,6′(1′H,3′H)-trione]						< 0.03	< 0.03	< 0.03	< 0.03	0.03 to 0.06 (≈ 0.058 to 0.116 µM)	0.03 to 0.06 (≈ 0.058 to 0.116 µM)				about 8 times			
C[C@@H]1CN2c3c(cc4c(N5C(=O)S[C@@H]6CCC[C@@H]65)noc4c3F)CC3(C(=O)NC(=O)NC3=O)[C@H]2[C@H](C)O1 [Compound 21, (2R,4S,4aS)-11-fluoro-2,4-dimethyl-8-((3aS,6aR)-2-oxotetrahydro-2H-cyclopentane[d]thiazol-3(3aH)-yl)-1,2,4,4a-tetrahydro-2′H,6H-spiro[isoxazole[4,5-g][1,4]oxazine [4,3-a]quinoline-5,5′-pyrimidine]-2′,4′,6′(1′H,3′H)-trione]						0.03 to 0.125 (≈ 0.0567 to 0.236 µM)	0.03 to 0.06 (≈ 0.0567 to 0.113 µM)	0.03 to 0.125 (≈ 0.0567 to 0.236 µM)	0.03 to 0.125 (≈ 0.0567 to 0.236 µM)	0.03 to 0.125 (≈ 0.0567 to 0.236 µM)	0.03 to 0.125 (≈ 0.0567 to 0.236 µM)							
C=C1CN(c2noc3c(F)c4c(cc23)CC2(C(=O)NC(=O)NC2=O)[C@H]2[C@H](C)O[C@H](C)CN42)C(=O)S1 [Compound 25, (2R,4S,4aS)-11-fluoro-2,4-dimethyl-8-(5-methylene-2-oxothiazol-3-yl)-1,2,4,4a-tetrahydro-2′H,6H-spiro[isoxazole[4,5-g][1,4]oxazine[4,3-a]quinoline-5,5′-pyrimidine]-2′,4′,6′(1′H, 3′H)-trione]						< 0.03	< 0.03	< 0.03	< 0.03	< 0.03	< 0.03				about 8 times			
C[C@H]1COc2c(N3CCN(C)CC3)c(F)cc3c(=O)c(C(=O)O)cn1c23 [levofloxacin, reference compound]																0.5 to 1 (≈ 1.38 to 2.77 µM)	1 (≈ 2.77 µM)	0.5 to 4 (≈ 1.38 to 11.1 µM)

Reference: patent US11180509B2, “Thiazolidone spiro pyrimidine trione compound, preparation method therefor and uses thereof” (SHANGHAI INSTITUTE OF MATERIA MEDICA, CHINESE ACADEMY OF …, priority 2017, dated 2021)
